Experimental data: US20130324545A1, “METHODS FOR THE REGULATION OF THE PROSTAGLANDIN F SYNTHASE (PGFS) ACTIVITY OF AKR1B1 AND USES THEREOF” (UNIVERSITE LAVAL, priority 2007, published 2013)
Where two headings read alike, the source gives them in different places.

Legend:
[1] = test system: human endometrial epithelial (HIEEC) cells; assay: PGF2α and PGE2 production and enzyme expression in endometrial epithelial HIEEC cells stimulated with IL-1β (ELISA, Western blot); type: cell-based; conditions: for IC50: Homo sapiens; for PGF2α production / expression of PGF2α biosynthetic enzymes (AKR1B1, COX-1, COX-2): increasing doses of cytokine, HIEEC
Method: (§1) Western blot analysis was performed with approximately 20 μg total proteins from cultured cells on a 10% SDS-PAGE gel, followed by electro-transfer onto nitrocellulose membrane. The primary antibodies used for the present study were rabbit AKR1B1 (dilution 1:1000) and COX-2 (dilution 1:10 000) anti-sera and goat AKR1C3 (dilution 1:500) anti-serum. A β-actin monoclonal antibody (1:5000, Sigma, Mississauga, Ontario, Canada) was used as an internal control. Goat anti-rabbit IgG conjugated with horseradish peroxidase (HRP) (Jackson Immunoresearch Laboratories, West Grove, Pa., USA), rabbit anti-goat IgG HRP and goat anti-mouse IgG HRP were used as secondary antibodies. Chemiluminescence was analyzed with autoradiography films at optimal times of exposure following treatment of the membranes with Renaissance™ reagent (NEN Life Science Products, Boston, Mass., USA).
(§2) For cell culture transfection, immortalized human endometrial stromal cells (HIESC-2) and epithelial cells(HIEEC-22) were cultured in RPMI 1640 without phenol red, containing 50 IU penicillin-streptomycin supplemented with 10% whole fetal bovine serum (FBS). Ten percent dextran-coated charcoal-extracted FBS was used once cells have reached confluency. Knock-down and knock-in transfections of cells with AKR1B1 specific siRNA, AKR1B1 or AKRIC3 cDNAs in pCR3.1 expression vectors were performed with Lipofectamine™ 2000 for 4 hours in culture medium without antibiotic. Thirty-six hours after transfection (24 hours for siRNA transfection), cells were treated for 24 hours with recombinant human interleukin 1β (IL-1β) (1 ng/ml) (R&D Systems, Minneapolis, Minn., USA) or arachidonic acid (AA) 10 μM in RPMI 1640 medium without serum. At the end of the treatment period, the culture medium was recovered and stored at −20° C. until evaluation for PGF2α production.
(§3) Enzymatic immunoassay (EIA) was performed with an acetylcholinesterase-linked PGF2α tracer (Cayman) as described previously (Asselin et al., Biol Reprod 54(2); 371-9, 1996). Sheep anti-PGF2α (Bio-Quant, Ann Arbor, Mich., USA) was used as the selective antibody. Inter-assay and intra-assay coefficients of variations (n=12) were of 16% and 10% respectively. Statistical analysis was performed using ANOVA with Statview™ software (Abacus Concept, Calif.). Values were considered statistically significant for p<0.05.

[2] = test system: human endometrial stromal (HIESC) cells; assay: PGF2α and PGE2 production and enzyme expression in endometrial stromal HIESC cells stimulated with IL-1β (ELISA, Western blot); type: cell-based; conditions: for PGE2 production in presence of PG receptor antagonist: IL-1β-stimulated stromal HIESC; for IC50: Homo sapiens, stromal HIESC cells stimulated by IL-1β, ELISA, range in brackets
[3] = biological target: T1, AKR1B1 (Homo sapiens, UniProt P15121); assay: Effect of ASA / COX inhibitors on AKR1B1 expression and PGF synthase activity in cells expressing AKR1B1; type: cell-based
T1 construct: endogenous in cells; host or cells: 'our cellular model'
Method: as §1

[4] = test system: macrophages; conditions: macrophages treated with endotoxines or lipopolysaccharides; cited from earlier work
[5] = diabetic subjects having neuropathies; cited from earlier work
[6] = test system: primary human umbilical vein smooth muscle cells (HUVSMC); assay: Effect of IL-1β on PGF2α, COX-2 and AKR1B1 in primary HUVSMC; type: cell-based
From the text: FIG. 21 comprises FIGS. 21A and 21B, with FIG. 21A illustrating the effect of IL-1β on the production of PGF2α by primary human umbilical vein smooth muscle cells (HUVSMC), as measured by ELISA; and FIG. 21B illustrating the effect of IL-1β on the protein expression of COX-2 and AKR1B1 in primary HUVSMC.

[7] = test system: human primary cardiomyocytes; assay: Effect of IL-1β and TNF-α on PGF2α, COX-2 and AKR1B1 in human primary cardiomyocytes (ELISA, Western blot); type: cell-based; conditions: for PGF2α production: FIG. 19, ELISA; for AKR1B1 and COX-2 protein expression: FIG. 19, Western blot
From the text: FIG. 19 comprises FIG. 19A, 19B, 19C and 19D, and illustrates the effect of IL-1β and TNF-α on the production of PGF2α (A), COX-2 (B) and AKR1B1 (C) by human primary cardiomyocytes, as measured by ELISA and Western blot. FIG. 19D illustrates β-actin levels of the three cells groups.

[8] = test system: human endometrial stromal (HIESC) cells; assay: PGF2α and PGE2 production and enzyme expression in endometrial stromal HIESC cells stimulated with IL-1β (ELISA, Western blot); type: cell-based; conditions: increasing doses of cytokine
Method: as §1, §2, §3

[9] = test system: primary human umbilical artery smooth muscle cells (HUASMC); assay: Effect of IL-1β on PGF2α, COX-2 and AKR1B1 in primary HUASMC; type: cell-based
From the text: FIG. 20 comprises FIGS. 20A and 20B, with FIG. 20A illustrating the effect of IL-1β on the production of PGF2α by primary human umbilical artery smooth muscle cells (HUASMC), as measured by ELISA; and FIG. 20B illustrating the effect of IL-1β on the protein expression of COX-2 and AKR1B1 in primary HUASMC.

[10] = test system: primary human umbilical vein endothelial cells (HUVEC); assay: Effect of IL-1β and TNF-α on PGF2α, COX-2 and AKR1B1 in primary HUVEC; type: cell-based; conditions: for PGF2α production: ELISA; for COX-2 protein expression: endogenous AKR1B1 levels already high
From the text: FIG. 22 comprises FIGS. 22A and 22B, with FIG. 22A illustrating the effect of IL-1β and TNF-α on the production of PGF2α by primary human umbilical vein endothelial cells (HUVEC), as measured by ELISA; and FIG. 22B illustrating the effect of IL-1β and TNF-α on the protein expression of COX-2 and AKR1B1 in primary HUVEC.

[11] = read-out: IC50 PGF2α production
[12] = HIEEC cells stimulated by IL-1β, ELISA, range in brackets, read-out: IC50 PGE2 production
[13] = HIEEC cells treated with IL-1β, ELISA, range in brackets, read-out: IC50 PGF2α production

Q: With `O=C(O)CCC/C=C\C[C@@H]1[C@@H](/C=C/[C@H](O)C2Cc3ccccc3C2)[C@@H](F)C[C@@H]1O` [AL8810] as the compound, how does the “PGE2 production in presence of PG receptor antagonist” value (shortened to “PGE2 production in presence”) ([1]; IL-1β-stimulated epithelial HIEEC) read?
A: induced a reduction in PGE2 production

Q: What about the “PGE2 production in presence” value [2] of the same compound?
A: induced a reduction in PGE2 production

Q: What about the “PGE2 production in presence” value ([2]; listed as AL 8810) of the same compound?
A: reduced PGE2 production

Q: With `CC(=O)Oc1ccccc1C(=O)O` [Aspirin, acetylsalicylic acid] as the compound, how does the IC50 [1, 11] read?
A: 1940 nM

Q: What about the AKR1B1 gene expression [3] of the same compound?
A: blocks

Q: And the “inhibition of AKR1B1 protein” value ([3]; 1-5 mM, cellular model)?
A: dose-dependent inhibition

Q: And the PGF synthase activity ([3]; cells expressing AKR1B1)?
A: strongly reduced

Q: And the “protein expression level of AKR1B1” value ([3]; cells expressing AKR1B1)?
A: strongly reduced

Q: With `CS(=O)(=O)Nc1ccc([N+](=O)[O-])cc1OC1CCCCC1` [NS-398] as the compound, how does the “inhibition of PGF2α production” value ([1]; COX-1-expressing HIEEC, IL-1β) read?
A: did not completely inhibited

Q: With `O=C1NC(=O)[C@@]2(CCOc3ccc(F)cc32)N1` [Sorbinil™] as the compound, how does the “production levels of PGE2” value [4] read?
A: capable to reduce

Q: For `O=C(O)Cc1nn(Cc2ccc(Br)cc2F)c(=O)c2ccccc12` [Statil™], which side-effects [5] is on record?
A: undesirable hepatic side-effects

Q: Which side-effects [5] does the source give for `COc1ccc2c(C(=S)N(C)CC(=O)O)cccc2c1C(F)(F)F` [Tolrestat™] here?
A: undesirable hepatic side-effects

Q: And the “production levels of PGE2” value [4]?
A: capable to reduce

Q: Which results are given for `O=C(O)Cc1nn(Cc2nc3cc(C(F)(F)F)ccc3s2)c(=O)c2ccccc12` [Zopolrestat™]?
A: side-effects [5]: undesirable hepatic side-effects; production levels of PGE2 [4]: capable to reduce

Q: What does the source list for `COc1ccc2cc([C@H](C)C(=O)O)ccc2c1` [naproxen]?
A: potency for inhibition of PGF2α production compared with Aspirin ([1]; HIEEC cells stimulated by IL-1β): more potent than Aspirin™; IC50 [1, 12]: 142 nM; IC50 [1, 13]: 4.62 nM; PGF2α/PGE2 ratio ([1]; at 10 nM): strong alteration of the PGF2α/PGE2 ratio in favor of PGE2; inhibits PGF2α more efficiently than PGE2 ([1]; endometrial epithelial cells (express COX-1 and COX-2)): 100 times; IC50 ([2]; read-out: IC50 PGE2 production): 62.6 nM; IC50 [2, 11]: 43.8 nM; inhibition of PGF2α versus PGE2 production, comparison of IC50 ([2]; endometrial stromal cells (only express COX-2)): comparable IC50

Q: For `CS(=O)(=O)c1ccc(C2=C(c3ccccc3)C(=O)OC2)cc1` [rofecoxib], which “inhibits production of PGE2 more efficiently than production of PGF2α” value ([1]; HIEEC cells stimulated with IL-1β) is on record?
A: ten times more efficiently

Q: And the IC50 [1, 12]?
A: 51.7 nM

Q: What about the IC50 [1, 13] of the same compound?
A: 201 nM

Q: And the PGF2α/PGE2 ratio ([1]; at 10 μM)?
A: strong alteration of the PGF2α/PGE2 ratio in favor of PGF2α

Q: And the AKR1B1 gene expression [3]?
A: do not influence

Q: For IL-1β: recombinant human interleukin 1β, which “AKR1C3 protein expression level” value ([1]; HIEEC-22, 1 ng/ml, Western blot) is on record?
A: no effect

Q: And the PGF2α production [1]?
A: increase in PGF2α production

Q: What about the “expression of PGF2α biosynthetic enzymes (AKR1B1, COX-1, COX-2)” value (“expression of PGF2α biosynthetic enzymes” for short) [1] of the same compound?
A: significant increase in expression of AKR1B1, COX-1 and COX-2

Q: What about the “AKR1B1 and COX-2 protein expression” value [6] of the same compound?
A: stimulated

Q: And the PGF2α production ([6]; ELISA)?
A: stimulated

Q: What about the PGF2α production [7] of the same compound?
A: stimulated

Q: And the “AKR1B1 and COX-2 protein expression” value [7]?
A: stimulated

Q: And the PGF2α production [8]?
A: increase in PGF2α production

Q: What about the “expression of PGF2α biosynthetic enzymes” value [8] of the same compound?
A: only of COX-2

Q: What about the “AKR1B1 and COX-2 protein expression” value [9] of the same compound?
A: stimulated

Q: What about the PGF2α production ([9]; ELISA) of the same compound?
A: stimulated

Q: What about the PGF2α production [10] of the same compound?
A: stimulated

Q: What about the COX-2 protein expression [10] of the same compound?
A: stimulated

Q: For TNF-α, which PGF2α production [1] is on record?
A: increase in PGF2α production

Q: What about the “expression of PGF2α biosynthetic enzymes” value [1] of the same compound?
A: significant increase in expression of AKR1B1, COX-1 and COX-2

Q: And the PGF2α production [7]?
A: stimulated

Q: What about the “AKR1B1 and COX-2 protein expression” value [7] of the same compound?
A: stimulated

Q: And the PGF2α production [8]?
A: increase in PGF2α production

Q: What about the “expression of PGF2α biosynthetic enzymes” value [8] of the same compound?
A: significant increase in expression of AKR1B1, COX-1 and COX-2

Q: And the PGF2α production [10]?
A: stimulated

Q: What about the COX-2 protein expression [10] of the same compound?
A: stimulated
